Source: PubChem BioAssay (NCI)
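Growth conditions: 96-well plates. Treatment: test compound, 48 hours, 5 concentrations. Analysis: linear interpolation between bracketing concentrations; unreached endpoints set to highest concentration. At the TGI there is no net growth.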

Columns and labels:
Experiment in all cases: growth of human tumour cells (NCI), 48 h
786-0 renal = tested on: 786-0 renal
A498 renal = tested on: A498 renal
A549 NSCLC = tested on: A549 NSCLC
ACHN renal = tested on: ACHN renal
BT-549 breast = tested on: BT-549 breast
CAKI-1 renal = tested on: CAKI-1 renal
CCRF-CEM leukemia = tested on: CCRF-CEM leukemia
COLO 205 colon = tested on: COLO 205 colon
DU-145 prostate = tested on: DU-145 prostate
EKVX NSCLC = tested on: EKVX NSCLC
HCC-2998 colon = tested on: HCC-2998 colon
HCT-116 colon = tested on: HCT-116 colon
HCT-15 colon = tested on: HCT-15 colon
HOP-62 NSCLC = tested on: HOP-62 NSCLC
HT29 colon = tested on: HT29 colon
IGROV1 ovarian = tested on: IGROV1 ovarian
K-562 leukemia = tested on: K-562 leukemia
KM12 colon = tested on: KM12 colon
LOX IMVI melanoma = tested on: LOX IMVI melanoma
M14 melanoma = tested on: M14 melanoma
MALME-3M melanoma = tested on: MALME-3M melanoma
MCF7 breast = tested on: MCF7 breast
MDA-MB-231 breast = tested on: MDA-MB-231 breast
MDA-MB-435 = tested on: MDA-MB-435
MDA-N = tested on: MDA-N
MOLT-4 leukemia = tested on: MOLT-4 leukemia
NCI-H226 lung = tested on: NCI-H226 lung
NCI-H23 lung = tested on: NCI-H23 lung
NCI-H460 lung = tested on: NCI-H460 lung
NCI-H522 lung = tested on: NCI-H522 lung
NCI/ADR-RES ovarian = tested on: NCI/ADR-RES ovarian
OVCAR-4 ovarian = tested on: OVCAR-4 ovarian
OVCAR-5 ovarian = tested on: OVCAR-5 ovarian
OVCAR-8 ovarian = tested on: OVCAR-8 ovarian
PC-3 prostate = tested on: PC-3 prostate
RPMI-8226 leukemia = tested on: RPMI-8226 leukemia
RXF 393 renal = tested on: RXF 393 renal
SF-268 CNS = tested on: SF-268 CNS
SF-295 CNS = tested on: SF-295 CNS
SF-539 CNS = tested on: SF-539 CNS
SK-MEL-2 melanoma = tested on: SK-MEL-2 melanoma
SK-MEL-28 melanoma = tested on: SK-MEL-28 melanoma
SK-MEL-5 melanoma = tested on: SK-MEL-5 melanoma
SK-OV-3 ovarian = tested on: SK-OV-3 ovarian
SN12C renal = tested on: SN12C renal
SNB-19 CNS = tested on: SNB-19 CNS
SNB-75 CNS = tested on: SNB-75 CNS
SR leukemia = tested on: SR leukemia
SW-620 colon = tested on: SW-620 colon
T-47D breast = tested on: T-47D breast
TK-10 renal = tested on: TK-10 renal
U251 CNS = tested on: U251 CNS
UACC-257 melanoma = tested on: UACC-257 melanoma
UACC-62 melanoma = tested on: UACC-62 melanoma
UO-31 renal = tested on: UO-31 renal

Question: With `CCCCN1C(=O)c2c(Br)sc(Br)c2C1=O` as the compound, how does the TGI (786-0 renal) read?
Answer: Its TGI is > 100 µM.

Question: What about the TGI (A498 renal) of the same compound?
Answer: The TGI was > 100 µM.

Question: And the TGI (A549 NSCLC)?
Answer: The TGI was 70.3 µM.

Question: And the TGI (ACHN renal)?
Answer: Its TGI is > 100 µM.

Question: What about the TGI (BT-549 breast) of the same compound?
Answer: The TGI was > 100 µM.

Question: What about the TGI (CAKI-1 renal) of the same compound?
Answer: The TGI was > 100 µM.

Question: What about the TGI (CCRF-CEM leukemia) of the same compound?
Answer: The TGI was > 100 µM.

Question: And the TGI (COLO 205 colon)?
Answer: Its TGI is 39.1 µM.

Question: What about the TGI (DU-145 prostate) of the same compound?
Answer: The TGI was > 100 µM.

Question: What about the TGI (EKVX NSCLC) of the same compound?
Answer: Its TGI is > 100 µM.

Question: What about the TGI (HCC-2998 colon) of the same compound?
Answer: The TGI was > 100 µM.

Question: And the TGI (HCT-116 colon)?
Answer: The TGI was 65.6 µM.

Question: And the TGI (HCT-15 colon)?
Answer: Its TGI is > 100 µM.

Question: What about the TGI (HOP-62 NSCLC) of the same compound?
Answer: Its TGI is > 100 µM.

Question: What about the TGI (HT29 colon) of the same compound?
Answer: The TGI was 47.1 µM.

Question: What about the TGI (IGROV1 ovarian) of the same compound?
Answer: The TGI was > 100 µM.

Question: What about the TGI (K-562 leukemia) of the same compound?
Answer: Its TGI is > 100 µM.

Question: What about the TGI (KM12 colon) of the same compound?
Answer: Its TGI is 87.5 µM.

Question: And the TGI (LOX IMVI melanoma)?
Answer: The TGI was > 100 µM.

Question: And the TGI (M14 melanoma)?
Answer: Its TGI is > 100 µM.

Question: And the TGI (MALME-3M melanoma)?
Answer: Its TGI is > 100 µM.

Question: And the TGI (MCF7 breast)?
Answer: The TGI was > 100 µM.

Question: What about the TGI (MDA-MB-231 breast) of the same compound?
Answer: The TGI was > 100 µM.

Question: And the TGI (MDA-MB-435)?
Answer: Its TGI is > 100 µM.

Question: What about the TGI (MDA-N) of the same compound?
Answer: The TGI was > 100 µM.

Question: And the TGI (MOLT-4 leukemia)?
Answer: Its TGI is 70.6 µM.

Question: What about the TGI (NCI-H226 lung) of the same compound?
Answer: The TGI was > 100 µM.

Question: What about the TGI (NCI-H23 lung) of the same compound?
Answer: Its TGI is > 100 µM.

Question: What about the TGI (NCI-H460 lung) of the same compound?
Answer: The TGI was > 100 µM.

Question: And the TGI (NCI-H522 lung)?
Answer: The TGI was > 100 µM.

Question: What about the TGI (NCI/ADR-RES ovarian) of the same compound?
Answer: The TGI was 88.2 µM.

Question: What about the TGI (OVCAR-4 ovarian) of the same compound?
Answer: Its TGI is 91.1 µM.

Question: And the TGI (OVCAR-5 ovarian)?
Answer: Its TGI is > 100 µM.

Question: And the TGI (OVCAR-8 ovarian)?
Answer: Its TGI is > 100 µM.

Question: What about the TGI (PC-3 prostate) of the same compound?
Answer: Its TGI is > 100 µM.

Question: And the TGI (RPMI-8226 leukemia)?
Answer: Its TGI is > 100 µM.

Question: And the TGI (RXF 393 renal)?
Answer: Its TGI is > 100 µM.

Question: And the TGI (SF-268 CNS)?
Answer: The TGI was > 100 µM.

Question: What about the TGI (SF-295 CNS) of the same compound?
Answer: Its TGI is > 100 µM.

Question: What about the TGI (SF-539 CNS) of the same compound?
Answer: The TGI was 69.1 µM.

Question: What about the TGI (SK-MEL-2 melanoma) of the same compound?
Answer: Its TGI is > 100 µM.

Question: What about the TGI (SK-MEL-28 melanoma) of the same compound?
Answer: Its TGI is > 100 µM.

Question: What about the TGI (SK-MEL-5 melanoma) of the same compound?
Answer: The TGI was > 100 µM.

Question: And the TGI (SK-OV-3 ovarian)?
Answer: Its TGI is > 100 µM.

Question: What about the TGI (SN12C renal) of the same compound?
Answer: The TGI was 95.8 µM.

Question: And the TGI (SNB-19 CNS)?
Answer: Its TGI is > 100 µM.

Question: What about the TGI (SNB-75 CNS) of the same compound?
Answer: Its TGI is 90.5 µM.

Question: And the TGI (SR leukemia)?
Answer: The TGI was 85.6 µM.

Question: And the TGI (SW-620 colon)?
Answer: Its TGI is 66.2 µM.

Question: What about the TGI (T-47D breast) of the same compound?
Answer: The TGI was > 100 µM.

Question: What about the TGI (TK-10 renal) of the same compound?
Answer: Its TGI is > 100 µM.

Question: And the TGI (U251 CNS)?
Answer: Its TGI is > 100 µM.

Question: And the TGI (UACC-257 melanoma)?
Answer: Its TGI is > 100 µM.

Question: And the TGI (UACC-62 melanoma)?
Answer: The TGI was > 100 µM.

Question: What about the TGI (UO-31 renal) of the same compound?
Answer: The TGI was > 100 µM.
